Columns and labels:
[1] = target: Beta-2 adrenergic receptor (Homo sapiens, UniProt P07550); assay: DRUGMATRIX: Adrenergic beta2 radioligand binding (ligand: [3H] CGP-12177); type: cell membranes, CHO, Membrane; conditions: cho; Not Active = under 50% inhibition at 10 µM
[2] = target: Vasopressin V1a receptor (Homo sapiens, UniProt P37288); type: cell membranes, Membrane; conditions: hek293; also: in other assays of this panel Not Active means under 50% inhibition at 10 µM
[3] = target: Carbonic anhydrase 2 (Homo sapiens, UniProt P00918); assay: DRUGMATRIX: Carbonic Anhydrase II enzyme inhibition (substrate: 4-Nitrophenyl acetate (4-NPA)); type: tissue-based, Erythrocyte; conditions: erythrocyte; Not Active = under 50% inhibition at 10 µM
[4] = target: Glycine receptor (Rattus norvegicus, UniProt P22771+P24524+P07727+P20781); type: cell membranes, Wistar, Spinal cord, Membrane; also: in other assays of this panel Not Active means under 50% inhibition at 10 µM
[5] = target: T1, 3-hydroxy-3-methylglutaryl-coenzyme A reductase (Homo sapiens, UniProt P04035); design: species or system Escherichia coli;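 also: enzyme inhibition assay of HMG-CoA reductase using radiolabeled [14C]HMG-CoA as substrate; in other assays of this panel Not Active means under 50% inhibition at 10 µM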
T1 sequence (P04035 whole entry): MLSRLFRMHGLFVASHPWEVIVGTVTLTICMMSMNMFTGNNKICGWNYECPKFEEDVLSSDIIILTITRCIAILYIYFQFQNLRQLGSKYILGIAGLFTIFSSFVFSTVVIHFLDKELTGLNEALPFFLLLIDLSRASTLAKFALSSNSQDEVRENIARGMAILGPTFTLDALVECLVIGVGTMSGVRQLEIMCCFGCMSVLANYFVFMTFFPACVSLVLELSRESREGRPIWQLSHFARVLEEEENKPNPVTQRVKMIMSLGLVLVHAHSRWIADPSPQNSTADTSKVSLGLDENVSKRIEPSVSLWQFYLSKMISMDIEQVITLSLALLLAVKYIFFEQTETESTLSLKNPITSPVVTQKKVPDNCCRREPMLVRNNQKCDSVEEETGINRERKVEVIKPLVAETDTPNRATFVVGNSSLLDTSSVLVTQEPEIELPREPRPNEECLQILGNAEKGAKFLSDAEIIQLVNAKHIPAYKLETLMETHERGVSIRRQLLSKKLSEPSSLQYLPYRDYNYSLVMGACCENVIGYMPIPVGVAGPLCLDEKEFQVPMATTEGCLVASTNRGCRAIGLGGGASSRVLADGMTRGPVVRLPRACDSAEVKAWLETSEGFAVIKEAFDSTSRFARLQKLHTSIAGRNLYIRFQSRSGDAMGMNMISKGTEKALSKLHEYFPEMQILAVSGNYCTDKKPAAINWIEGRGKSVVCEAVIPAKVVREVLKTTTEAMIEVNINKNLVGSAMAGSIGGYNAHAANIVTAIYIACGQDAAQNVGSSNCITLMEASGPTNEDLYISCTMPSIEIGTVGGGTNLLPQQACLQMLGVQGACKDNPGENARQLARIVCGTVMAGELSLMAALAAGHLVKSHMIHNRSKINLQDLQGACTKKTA

[6] = target: Insulin receptor (Rattus norvegicus, UniProt P15127); type: cell membranes, Wistar, Liver, Membrane; also: in other assays of this panel Not Active means under 50% inhibition at 10 µM
[7] = target: Voltage-gated inwardly rectifying potassium channel KCNH2 (Homo sapiens, UniProt Q12809); conditions: hek293; also: in other assays of this panel Not Active means under 50% inhibition at 10 µM
Sequence of Voltage-gated inwardly rectifying potassium channel KCNH2 (Q12809 whole entry): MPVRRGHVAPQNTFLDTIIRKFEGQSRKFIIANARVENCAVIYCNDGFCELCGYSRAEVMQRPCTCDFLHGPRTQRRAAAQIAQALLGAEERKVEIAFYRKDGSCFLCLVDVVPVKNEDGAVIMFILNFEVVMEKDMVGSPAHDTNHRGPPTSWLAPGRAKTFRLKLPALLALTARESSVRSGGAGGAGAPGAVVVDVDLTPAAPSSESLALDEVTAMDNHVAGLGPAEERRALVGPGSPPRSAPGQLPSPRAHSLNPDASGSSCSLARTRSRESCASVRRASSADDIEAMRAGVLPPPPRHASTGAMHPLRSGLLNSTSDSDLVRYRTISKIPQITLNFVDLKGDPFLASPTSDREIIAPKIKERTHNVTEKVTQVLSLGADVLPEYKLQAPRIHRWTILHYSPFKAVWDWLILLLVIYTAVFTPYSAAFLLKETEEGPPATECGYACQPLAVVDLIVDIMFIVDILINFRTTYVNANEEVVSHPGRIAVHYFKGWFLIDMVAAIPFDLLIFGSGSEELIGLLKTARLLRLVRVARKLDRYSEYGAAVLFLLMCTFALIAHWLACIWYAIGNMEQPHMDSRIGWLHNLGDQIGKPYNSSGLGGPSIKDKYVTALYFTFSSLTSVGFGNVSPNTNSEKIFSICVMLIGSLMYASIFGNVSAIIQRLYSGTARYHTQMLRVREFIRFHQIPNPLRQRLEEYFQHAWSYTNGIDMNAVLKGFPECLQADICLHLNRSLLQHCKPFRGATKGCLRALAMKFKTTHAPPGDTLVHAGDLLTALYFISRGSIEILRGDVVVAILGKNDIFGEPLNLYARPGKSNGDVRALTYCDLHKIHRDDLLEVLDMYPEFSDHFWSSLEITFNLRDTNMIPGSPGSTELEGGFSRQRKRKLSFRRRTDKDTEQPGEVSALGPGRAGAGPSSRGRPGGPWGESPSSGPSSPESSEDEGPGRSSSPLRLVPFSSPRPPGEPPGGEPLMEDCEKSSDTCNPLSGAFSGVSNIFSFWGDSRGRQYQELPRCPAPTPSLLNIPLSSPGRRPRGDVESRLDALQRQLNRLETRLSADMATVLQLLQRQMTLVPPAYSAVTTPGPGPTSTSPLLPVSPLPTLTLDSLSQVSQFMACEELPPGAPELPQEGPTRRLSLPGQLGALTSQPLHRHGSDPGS

Sequence of Beta-2 adrenergic receptor (P07550 whole entry): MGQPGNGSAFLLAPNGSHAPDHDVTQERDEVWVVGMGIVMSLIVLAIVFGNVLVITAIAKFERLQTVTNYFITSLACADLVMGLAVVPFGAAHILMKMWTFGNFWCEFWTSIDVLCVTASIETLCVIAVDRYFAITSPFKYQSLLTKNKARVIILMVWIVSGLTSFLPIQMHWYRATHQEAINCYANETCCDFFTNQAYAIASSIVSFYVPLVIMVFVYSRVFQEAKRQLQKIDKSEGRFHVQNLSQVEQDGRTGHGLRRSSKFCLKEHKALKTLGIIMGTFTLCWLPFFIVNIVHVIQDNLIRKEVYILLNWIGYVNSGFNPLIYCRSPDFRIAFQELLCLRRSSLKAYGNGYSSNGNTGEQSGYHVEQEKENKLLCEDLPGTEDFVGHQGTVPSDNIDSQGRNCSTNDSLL
Sequence of Insulin receptor (P15127 27-759 limits assumed): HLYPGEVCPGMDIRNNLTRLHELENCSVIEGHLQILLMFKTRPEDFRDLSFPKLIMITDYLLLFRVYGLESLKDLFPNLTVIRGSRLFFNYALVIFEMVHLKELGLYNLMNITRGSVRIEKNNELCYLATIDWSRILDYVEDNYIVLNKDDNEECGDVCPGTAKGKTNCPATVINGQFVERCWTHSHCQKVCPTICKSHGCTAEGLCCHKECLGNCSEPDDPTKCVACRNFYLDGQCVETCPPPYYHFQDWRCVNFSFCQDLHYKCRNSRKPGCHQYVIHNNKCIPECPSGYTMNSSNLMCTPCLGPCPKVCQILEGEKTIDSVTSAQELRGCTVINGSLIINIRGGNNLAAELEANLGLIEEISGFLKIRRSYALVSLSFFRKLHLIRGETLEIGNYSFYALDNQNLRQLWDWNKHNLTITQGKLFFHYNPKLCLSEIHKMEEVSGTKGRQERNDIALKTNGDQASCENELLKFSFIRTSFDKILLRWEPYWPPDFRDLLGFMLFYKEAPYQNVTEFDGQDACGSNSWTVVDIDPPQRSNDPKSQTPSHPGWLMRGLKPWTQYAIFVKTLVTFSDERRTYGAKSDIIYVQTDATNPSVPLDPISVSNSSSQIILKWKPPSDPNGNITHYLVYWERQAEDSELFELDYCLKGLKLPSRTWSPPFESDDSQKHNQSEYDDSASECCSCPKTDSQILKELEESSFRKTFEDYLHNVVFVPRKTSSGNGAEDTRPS
Sequence of Insulin receptor (P15127 764-1383 limits assumed): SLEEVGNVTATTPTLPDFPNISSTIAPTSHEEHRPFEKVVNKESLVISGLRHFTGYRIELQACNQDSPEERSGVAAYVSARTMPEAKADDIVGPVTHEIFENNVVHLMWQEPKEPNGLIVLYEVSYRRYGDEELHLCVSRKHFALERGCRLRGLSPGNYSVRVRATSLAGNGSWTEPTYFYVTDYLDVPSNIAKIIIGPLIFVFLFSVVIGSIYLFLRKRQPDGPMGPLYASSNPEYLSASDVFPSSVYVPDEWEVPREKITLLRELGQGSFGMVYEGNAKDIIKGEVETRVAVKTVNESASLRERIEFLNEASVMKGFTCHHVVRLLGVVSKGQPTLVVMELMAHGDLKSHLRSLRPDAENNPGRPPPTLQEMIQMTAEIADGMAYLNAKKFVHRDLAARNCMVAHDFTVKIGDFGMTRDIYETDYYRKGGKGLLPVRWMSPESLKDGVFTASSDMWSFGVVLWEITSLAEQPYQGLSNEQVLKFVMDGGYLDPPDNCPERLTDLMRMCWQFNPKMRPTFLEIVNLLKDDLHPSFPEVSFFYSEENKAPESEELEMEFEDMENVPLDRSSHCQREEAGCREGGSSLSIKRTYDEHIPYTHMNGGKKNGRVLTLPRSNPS
Sequence of Vasopressin V1a receptor (P37288 whole entry): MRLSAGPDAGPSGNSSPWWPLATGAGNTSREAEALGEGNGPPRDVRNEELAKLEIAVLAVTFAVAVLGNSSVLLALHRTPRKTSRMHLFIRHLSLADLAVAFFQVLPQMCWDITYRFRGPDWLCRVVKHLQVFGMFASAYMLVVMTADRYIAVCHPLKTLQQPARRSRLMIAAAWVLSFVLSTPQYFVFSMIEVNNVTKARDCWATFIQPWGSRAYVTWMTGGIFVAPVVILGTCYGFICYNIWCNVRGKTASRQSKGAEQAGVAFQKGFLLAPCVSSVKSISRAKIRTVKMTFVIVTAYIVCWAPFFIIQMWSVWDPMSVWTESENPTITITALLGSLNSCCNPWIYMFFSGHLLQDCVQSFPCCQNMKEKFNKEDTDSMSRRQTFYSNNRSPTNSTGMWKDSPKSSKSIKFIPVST

C#C[C@]1(O)CC[C@H]2[C@@H]3CCc4cc(O)ccc4[C@H]3CC[C@@]21C [ETHINYL ESTRADIOL]
Not Active: IC50 [1] | IC50 [2] | IC50 [3] | IC50 [4] | IC50 [5] | IC50 [6] | IC50 [7] | Ki [7]

OCCO [ETHYLENE GLYCOL]
Not Active: IC50 [1] | IC50 [2] | IC50 [3] | IC50 [4] | IC50 [5] | IC50 [6] | IC50 [7] | Ki [7]

CC(=O)OCC(CCn1cnc2cnc(N)nc21)COC(C)=O [FAMCICLOVIR]
Not Active: IC50 [1] | IC50 [2] | IC50 [3] | IC50 [4] | IC50 [5] | IC50 [6] | IC50 [7] | Ki [7]

O=C(O)Cc1ccc(-c2ccccc2)cc1 [FELBINAC]
Not Active: IC50 [1] | IC50 [2] | IC50 [3] | IC50 [4] | IC50 [5] | IC50 [6] | IC50 [7] | Ki [7]

CCOC(=O)C1=C(C)NC(C)=C(C(=O)OC)C1c1cccc(Cl)c1Cl (centres undefined) [FELODIPINE]
Not Active: IC50 [1] | IC50 [2] | IC50 [3] | IC50 [4] | IC50 [5] | IC50 [6] | IC50 [7] | Ki [7]

CC(C(=O)O)c1ccc(-c2ccccc2)c(F)c1 (centres undefined) [FLURBIPROFEN]
Not Active: IC50 [1] | IC50 [2] | IC50 [3] | IC50 [4] | IC50 [5] | IC50 [6] | IC50 [7] | Ki [7]

Cc1cn[nH]c1 [FOMEPIZOLE]
Not Active: IC50 [1] | IC50 [2] | IC50 [3] | IC50 [4] | IC50 [5] | IC50 [6] | IC50 [7] | Ki [7]

NC[C@@H]1O[C@H](O[C@H]2[C@@H](O)[C@H](O[C@@H]3[C@@H](O)[C@H](N)C[C@H](N)[C@H]3O[C@H]3O[C@H](CN)[C@@H](O)[C@H](O)[C@H]3N)O[C@@H]2CO)[C@H](N)[C@@H](O)[C@@H]1O [FRAMYCETIN]
Not Active: IC50 [1] | IC50 [2] | IC50 [3] | IC50 [4] | IC50 [5] | IC50 [6] | IC50 [7] | Ki [7]

C[C@H]([C@](O)(Cn1cncn1)c1ccc(F)cc1F)S(C)(=O)=O [GENACONAZOLE]
Not Active: IC50 [1] | IC50 [2] | IC50 [3] | IC50 [4] | IC50 [5] | IC50 [6] | IC50 [7] | Ki [7]

Cc1c(F)c(N2CCNC(C)C2)cc2c1c(=O)c(C(=O)O)cn2C1CC1 (centres undefined) [GREPAFLOXACIN]
Not Active: IC50 [1] | IC50 [2] | IC50 [3] | IC50 [4] | IC50 [5] | IC50 [6] | IC50 [7] | Ki [7]

COc1ccccc1OCC(O)CO (centres undefined) [GUAIFENESIN]
Not Active: IC50 [1] | IC50 [2] | IC50 [3] | IC50 [4] | IC50 [5] | IC50 [6] | IC50 [7] | Ki [7]

N=C(N)N/N=C/c1c(Cl)cccc1Cl [GUANABENZ]
Not Active: IC50 [1] | IC50 [2] | IC50 [3] | IC50 [4] | IC50 [5] | IC50 [6] | IC50 [7] | Ki [7]

C[C@]12CCC(=O)C=C1CC[C@@H]1[C@@H]2[C@@H](O)C[C@@]2(C)[C@H]1CC[C@]2(O)C(=O)CO [HYDROCORTISONE]
Not Active: IC50 [1] | IC50 [2] | IC50 [3] | IC50 [4] | IC50 [5] | IC50 [6] | IC50 [7] | Ki [7]

NC[C@H]1O[C@H](O[C@H]2[C@H](O)[C@@H](O[C@H]3O[C@H](CO)[C@@H](O)[C@H](N)[C@H]3O)[C@H](N)C[C@@H]2N)[C@H](O)[C@@H](O)[C@@H]1O [KANAMYCIN]
Not Active: IC50 [1] | IC50 [2] | IC50 [3] | IC50 [4] | IC50 [5] | IC50 [6] | IC50 [7] | Ki [7]

CC(C(=O)O)c1ccc(CC2CCCC2=O)cc1 (centres undefined) [LOXOPROFEN]
Not Active: IC50 [1] | IC50 [2] | IC50 [3] | IC50 [4] | IC50 [5] | IC50 [6] | IC50 [7] | Ki [7]

Cc1cccc(Nc2ccccc2C(=O)O)c1C [MEFENAMIC ACID]
Not Active: IC50 [1] | IC50 [2] | IC50 [3] | IC50 [4] | IC50 [5] | IC50 [6] | IC50 [7] | Ki [7]

CC(=O)O[C@]1(C(C)=O)CC[C@H]2[C@@H]3C=C(C)C4=CC(=O)CC[C@]4(C)[C@H]3CC[C@@]21C [MEGESTROL ACETATE]
Not Active: IC50 [1] | IC50 [2] | IC50 [3] | IC50 [4] | IC50 [5] | IC50 [6] | IC50 [7] | Ki [7]

COc1ccccc1OCC(O)COC(N)=O (centres undefined) [METHOCARBAMOL]
Not Active: IC50 [1] | IC50 [2] | IC50 [3] | IC50 [4] | IC50 [5] | IC50 [6] | IC50 [7] | Ki [7]
